Reference: patent US20060171912A1, “Diiodomethyl-p-tolylsulfone as a particulate dispersion in a liquid solvent” (priority 2005, published 2006)
Like-named read-outs stand apart in the source and are kept apart here.

Key:
[1] = tested on: Malassezia furfur (ATCC 14521); test: Minimum Inhibitory Concentration (MIC) agar dilution test; assay type: cell-based; settings: for MIC: M. furfur, mDixon agar, 30°, 4-5 days; for Retained Activity: dispersed particle form (in water) vs. dissolved in an effective solvent (DMSO)
Method: ^1The Minimum Inhibitory Concentration is indicative of anti-fungal efficacy. Generally, the lower the value of the composition, the better its anti-fungal efficacy, due to increased inherent ability of the anti-dandruff agent to inhibit the growth of microorganisms.
Malassezia furfur was grown in a flask containing mDixon medium (see E. Gueho, et al. Antoinie Leeuwenhoek (1996), no. 69, 337-55, which description is incorporated by reference herein). Dilutions of solubilized anti-microbial active were then added to test tubes containing molten mDixon agar. M. furfur inoculum was added to each tube of molten agar, the tube vortexed, and the contents poured into separate sterile petri dishes. […] The lowest tested dilution of anti-microbial active that yields no growth is defined as the Minimal Inhibitory Concentration (MIC).
Experimental Procedure • 1) Malassezia furfur was grown in a 125 ml Erlenmeyer flask containing 50 ml “mDIXON” medium at 200 rpm and 30° C. until turbid. • 2) Selected dilutions were prepared using an appropriate dilution series, of the anti-microbial active or combination in solvent, which allowed the sample active to be solubilized prior to addition to the final test agar. For each concentration of the ZPT samples, the solvent was “DMSO”; for other samples, the solvent was water or “DMSO” or other suitable solvent. • 3) 0.25 ml dilutions of anti-microbial active were added to test tubes containing 9.5 ml molten “mDIXON” agar (held at 45° C. in a water bath). • 4) 0.25 M. furfur inoculum (adjusted to 5×10^5 cfu/ml by direct count) was added to each test tube of molten agar. • 5) Each tube was vortexed, and the contents poured into separate petri dishes. • 6) After the agar solidified, the plates inverted and incubated at 30° for 4-5 days. • 7) The plates were then observed for visible M. furfur growth. Particle Size Determination Method

[2] = cited from earlier work

MIC ([1]; Dispersed in Water): 2.0 ppm
MIC ([1]; Malassezia furfur, ATCC14521, Dissolved in DMSO, read-out: MIC): 2 µg/mL
SMILES: Cc1ccc(S(=O)(=O)C(I)I)cc1 [diiodomethyl-p-tolylsulfone, Diiodomethyl-p-tolylsulfone]
Retained Activity [1]: about 100%
Retained Activity ([1]; listed as AMICAL 48): 100%
Retained Activity ([1]; listed as Diiodomethyl-p-tolylsulfone): 100%
water solubility [2]: less than 5 ppm
